Assay results taken from patent US20260217656A1, “Compounds Affecting KRAS” (UNIVERSITAT DE BARCELONA, priority 2022, published 2026).

How the values were obtained:
hTERT-RPE cells = assay: MTS cell viability assay, hTERT-RPE; assay type: cell-based, human; settings: non-transformed hTERT-RPE cells, at approximately 80 μM
Description: (§1) DLD-1 (KRASWT/G13D) (clone V15, #HD PAR-086) colorectal adenocarcinoma cell line and DLD-1 knockout of mutant KRAS allele, DLD-1 KO (KRASWT/−) (clone DWT7, #HD105-002), were obtained from Horizon Discovery Ltd. (Cambridge, UK). hTERT-RPE (KRASWT/WT) immortalized retinal pigment epithelial human cell line was obtained from the […] (ATCC). DLD-1 KO cells stably expressing HA-KRAS G12V were previously generated in our laboratory (Cabot et al., 2021). All cells were grown in DMEM-HAM s F12 (1:1) supplemented with 10% foetal bovine serum (Biological Industries, Israel), penicillin, streptomycin, and nonessential amino acids. Cells were tested once per month for mycoplasma contamination.
(§2) 10,000 cells in 50 µL of 10% FBS-containing medium, were cultured for 24 hours and then treated with the compounds (50 μL final volume) for 48 h hours in each well of a 96-well plate (100 μL final volume). MTS viability assay (CellTiter 96® Aqueous One Solution Cell Proliferation Assay, Promega G3580) was assessed following the company conditions. The absorbance of each well was measured with a multimode plate reader (Spark, Tecan) at 490 nm. The percentage of cell viability was calculated by dividing the absorbance of each well by the average absorbance of the control wells. […]

DLD-1-KO cells = assay: MTS cell viability assay, DLD-1-KO; assay type: cell-based, human; settings: at approximately 80 μM
Description: as §1, §2

[1] = target: T1, GST-KRAS-G12V binding to CaM (Homo sapiens, UniProt P01116, G12V); assay: CaM-sepharose pulldown competition assay; settings: increasing concentrations of P14B
T1 construct: recombinant GTP-loaded GST-KRAS-G12V (1-166) with CaM-sepharose beads; made in house; host or cells: Escherichia coli BCI21 (so in the source)
Description: […] of recombinant GST-KRAS (1-166) (GTP loaded) and 12.5 I of CaM-sepharose beads (Cytiva; Merck) (previously washed with pull-down buffer (PDB) containing 50 mM Tris-HCl, pH 7.5, 150 mM NaCl, 0.1% (v/v) Triton X-100) were incubated in the presence of 1 mM CaCl2 or 5 mM EGTA (in a total volume of 100 I with PDB) for 60 minutes at room temperature. The unbound fraction was collected by centrifugation, and the bound fraction was washed four times with PDB with either CaCl2 or EGTA. The entire bound fraction was analysed by WB.
GST-KRAS (1-166) fusion protein was expressed in Escherichia coli BCI21 and then purified and loaded with the specific nucleotide as previously described (Villalonga et al., 2001).
To confirm the direct interaction between KRAS and P14B, surface plasmon resonance analysis was performed. Purified GST-KRAS (aminoacids 1 to 166) was immobilized and then GTP loaded. […] Given that P14B is able to bind to oncogenic KRAS (FIG. 4) most likely via the same surface that KRAS uses to interact with CaM, we analyzed the possibility that P14B can displace CaM from oncogenic KRAS. To this end, we performed an in vitro competence assay that consisted of pulling-down recombinant GTP-loaded GST-KRAS-G12V (1-166) with CaM-sepharose beads followed by incubation with increasing concentrations of P14B.

[2] = target: T2, GST-KRAS (1-166), GTP loaded (Homo sapiens, UniProt P01116, G12V); assay: Surface plasmon resonance analysis; assay type: binding; settings: GTP-loaded GST-KRAS (aminoacids 1 to 166) immobilized; read-out: affinity constant (KD)
T2 construct: GST-KRAS (1-166) and GST were covalently immobilized; made in house; host or cells: Escherichia coli BCI21 (so in the source)
Description: Surface Plasmon Resonance Analysis was performed by using BIAcore T200 equipment. GST-KRAS (1-166) and GST were covalently immobilized on two of the channels of CM5 Series S Chip following manufacturers instruction. KRAS was loaded with GTP by injecting 1 mM of GTP 10 μl/min for 30 min in exchange buffer (20 mM Tris-HCl pH 7.5; 50 mM NaCl, 5% glycerol, 0.1% Triton X-100, 1 mM DTT) with 10 mM EDTA at 30° C. and loading was blocked by injecting exchange buffer with 15 mM MgCl2 at 10 μl/min for 5 min. P14B was injected at 12.5 μM, 25 μM, 38.5 μM, 50 μM, 75 μM, 100 μM and 150 μM in running buffer (150 mM NaCl, 50 mM Tris-HCl pH7.5, 2 mM MgCl2, 0.1% Triton and 5% DMSO […] Dissociation was allowed for 10 min in the same buffer. All runs were done by duplicate. Nonspecific binding was subtracted by using two linked channels (GST-KRAS minus GST). Diverse solutions (from 3% to 8%) with DMSO were also prepared to analyse its effect in the RUs, and a solvent correction was performed to reduce the error associated with the injection of the sample. […]
To confirm the direct interaction between KRAS and P14B, surface plasmon resonance analysis was performed. […] Given that P14B is able to bind to oncogenic KRAS (FIG. 4) most likely via the same surface that KRAS uses to interact with CaM, we analyzed the possibility that P14B can displace CaM from oncogenic KRAS. […]

[3] = target: T3, HA-KRAS-G12V interaction with BRAF, C-RAF/P-C-RAF, ARAF (Homo sapiens, UniProt P01116, G12V); assay: Co-immunoprecipitation of HA-KRASG12V with RAF family members; assay type: cell-based; settings: 10 min treatment, 100 μM
T3 construct: expressed in transfected cells; host or cells: DLD-1 KO (KRAS WT/-) clone DWT7 cells stably expressing HA-KRAS G12V
Description: DLD-1 KO cells stably expressing HA-KRAS G12V were serum starved for the next 24 hours before treatment with the compounds for the times indicated. Next, an IP with anti-HA antibody crosslinked to agarose beads (clone HA-7, Sigma-Aldrich A20956) was performed as previously described (Cabot et al, Oncogene 2021).
We assessed the possibility that P14B favors RAS-effector binding and consequently increases downstream RAS signaling. To this end, co-immunoprecipitation experiments were carried out to analyze the interaction of KRAS with different RAF family members upon P14B treatment. The interaction was analyzed after 10 min of P14B treatment since P—C-RAF and P-MEK were observed after 15 min (FIG. 3C). DLD-1 cells stably expressing HA-KRAS-G12V were serum-starved and then treated for 10 min with either EGF or P14B.

SMILES: COc1ccc(C(c2c(C)n[nH]c2O)c2c(C)n[nH]c2O)cc1Oc1ccc([N+](=O)[O-])cc1 [Example P14B]
- cell viability (hTERT-RPE cells): not affected
- cell viability (DLD-1-KO cells): not affected
- Ca+2-dependent GST-KRAS-G12V binding to CaM [1]: reduced
- Kd [2]: 32.8 µM
- KRAS-ARAF binding [3]: No differences
- P-C-RAF co-immunoprecipitated with KRAS ([3]; serum-starved cells): increased the levels of P—C-RAF co-immunoprecipitated with KRAS
- KRAS-BRAF interaction ([3]; with respect to non-treated cells): increase in the KRAS-BRAF interaction
